Measurements as given in patent publication US20050032844A1, “Methods for regulating nicotine metabolism” (Nicogen, Inc., priority 1996, published 2005).
Several values for one entry are separate records, joined by “and”; a condition that tells them apart may be missing. Equal values may be shown once. Entries after “also recorded” stand apart in the source; their conditions may differ. Where a name gives a salt, the structure may show the parent alone. Read-outs that look alike come from different tables or passages of the source.

Legend:
[1] = test system: nicotine to cotinine metabolism by human liver microsomes; assay: Chemical inhibition studies of nicotine to cotinine metabolism in 30 human liver microsomes and K27 microsomes; format: biochemical; details: for rank order of potency in inhibiting cotinine formation: 10 and 100 μM inhibitor, 50 μM nicotine, K27 liver microsomes; for mean inhibition of cotinine formation (mean±SD): 150 μM inhibitor (each), 100 μM (S)-nicotine, 30 human liver microsomes
Experimental: Chemical inhibition studies. […] To maximize inhibition, and reduce the loss due to its own metabolism, a concentration of 150 μM was chosen for each specific inhibitor. […] This concentration was chosen to maximize the contributions of each cytochrome P450 involved in nicotine metabolism, since each enzyme would likely have varying affinities for nicotine. […] High and low concentrations ([…]) of coumarin, 7methylcoumarin, 7-methoxycoumarin, and 7-ethoxycoumarin were incubated with 50 μM nicotine in K27 human liver microsomes.

CYP2D6 [2] = target: T1, CYP2D6 (Homo sapiens, UniProt P10635); assay: in vitro; details: pH 7.4
T1 sequence (P10635 whole entry): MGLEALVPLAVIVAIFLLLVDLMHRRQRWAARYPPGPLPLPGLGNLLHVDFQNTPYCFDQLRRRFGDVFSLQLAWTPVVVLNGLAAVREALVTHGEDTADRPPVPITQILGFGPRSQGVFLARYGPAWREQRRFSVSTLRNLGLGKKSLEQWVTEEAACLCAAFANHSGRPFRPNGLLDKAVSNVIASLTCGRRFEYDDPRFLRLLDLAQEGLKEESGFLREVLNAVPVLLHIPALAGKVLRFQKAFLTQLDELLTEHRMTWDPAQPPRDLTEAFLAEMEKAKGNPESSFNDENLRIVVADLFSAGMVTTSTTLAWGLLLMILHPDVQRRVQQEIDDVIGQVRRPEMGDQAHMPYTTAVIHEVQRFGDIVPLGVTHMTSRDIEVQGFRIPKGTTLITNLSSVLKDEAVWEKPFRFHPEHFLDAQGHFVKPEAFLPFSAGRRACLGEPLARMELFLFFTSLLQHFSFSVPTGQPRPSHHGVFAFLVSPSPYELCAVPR

CYP2A6 [3] = target: T2, CYP2A6 (Homo sapiens, UniProt P11509); assay: biochemical
T2 sequence (P11509 1-494): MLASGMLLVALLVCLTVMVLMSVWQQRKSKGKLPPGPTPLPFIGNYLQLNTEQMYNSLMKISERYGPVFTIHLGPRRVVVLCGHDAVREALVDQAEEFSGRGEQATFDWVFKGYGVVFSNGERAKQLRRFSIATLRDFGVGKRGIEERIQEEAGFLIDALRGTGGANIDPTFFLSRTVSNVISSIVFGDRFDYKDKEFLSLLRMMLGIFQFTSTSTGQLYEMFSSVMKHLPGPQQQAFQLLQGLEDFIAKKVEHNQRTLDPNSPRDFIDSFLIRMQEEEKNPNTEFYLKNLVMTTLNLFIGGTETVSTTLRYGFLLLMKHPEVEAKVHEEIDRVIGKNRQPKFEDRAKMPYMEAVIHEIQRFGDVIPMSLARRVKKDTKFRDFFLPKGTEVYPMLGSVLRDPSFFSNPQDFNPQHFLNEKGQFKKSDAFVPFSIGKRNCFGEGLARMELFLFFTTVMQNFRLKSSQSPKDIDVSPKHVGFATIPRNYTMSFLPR
Experimental: Coumarin, 7-methylcoumarin, 7-methoxycoumarin and 7-ethoxycoumarin, at 10 and 100 μM concentrations, were incubated with 50 μM nicotine in K27 human liver microsomes. Furthermore, nicotine at 10, 30 and 50 μM concentrations was incubated using K27 liver microsomes in the presence of 0, 1, 2 and 5 μM concentrations of coumarin.
Microsomes were removed from −70° C. freezer and thawed on ice. […] The reaction was stopped by adding 100 μl to 20% Na2CO3 (pH 11.4).

[4] = in humans; cited from earlier work
CYP2A6 [5] = target: T2, CYP2A6; assay: Clinical study of methoxsalen pre-treatment before subcutaneous nicotine in dependent smokers; format: in vivo; parameters: 200 μl human liver microsomes (0.5 mg/ml); from tissue; host or cells: human liver microsomes (donor livers K12, K26, K27, K28)
Experimental: Frequent blood samples were drawn over 6 hours for measurement of nicotine and cotinine concentrations in plasma and measures of nicotine effects (e.g., heart rate; blood pressure; symptoms and urges and desires to smoke).
Each subject abstained from tobacco, food, beverages (other than water), and any inconsistently used drugs from midnight before each study day but continued to take any regularly scheduled drugs allowed by the protocol (e.g., oral contraceptives, daily vitamins). Before baseline measures were taken, a breath CO sample (Ecolyzer) was taken to assess compliance with the smoking abstinence (<10 ppm expected). The subsequent daily schedule is summarized here. All measurements are with respect to a time zero at 8 AM, at which time the first of three hourly nicotine injections were given. Nicotine was injected at 0, +1, and +2 hours.
Baseline physiologic and subjective measures were taken at −30 minutes, +30 minutes, and hourly thereafter until +5.5 hours, approximately coinciding with the expected peak plasma nicotine concentrations after each injection. Blood samples were taken at least hourly, more often around the expected peaks after the first and third injections, as described below.
Sterile nicotine bitartrate was obtained from Sigma Chemical. […] Nicotine injections of 31 μg/kg (expressed as the base) in sterile saline were used. […] The solutions were passed through a viral filter to remove any remote risk of viral or bacterial contamination.
Using an indwelling venous catheter, 8 ml blood samples were drawn every hour from +0 to +6 hours, and additional blood samples were taken at 15, 25, and 40 minutes after the first and third nicotine injections to characterize the kinetics around the expected time of the peak concentration, 25 minutes from injection. Samples that could not be immediately centrifuged for extraction of plasma were stored on ice for at most one hour before centrifugation.
Plasma (nicotine, cotinine) and urinary nicotine and cotinine were measured using an HPLC ion exchange column assay, using an electrochemical detector for nicotine and a UV detector for other compounds. The sensitivity of the nicotine assay was <1 ng/ml and that of the cotinine was <5 ng/ml. Conjugates in urine were determined after hydrolysis with beta-glucuronidase.

in vitro = details: human, human liver microsomes
Experimental: The reaction was started by adding NADPH.
Ethyl acetate (3 mls) was added for extraction purposes.
Data Analysis. […] [formula]

[6] = smokers infused with 2 μg/kg/min×30 minutes
CYP2D6 [7] = target: T1, CYP2D6; details: human liver microsomes, Wu, 1993; cited from earlier work
[8] = in vivo; cited from earlier work
[9] = test system: nicotine to cotinine metabolism by K20 human liver microsomes
[10] = test system: nicotine to cotinine metabolism by K20 human liver microsomes; assay: Quinidine and coumarin inhibition of cotinine formation in K20 human liver microsomes
CYP2A6 [11] = assay: Antisense knockdown of CYP2A6 protein in h2A6 lymphoblast cells (Western blot); format: cell-based, human
Experimental: (§1) In order to test the feasiblility of using antisense oligodeoxynucleotides (ASO) for the reduction of the CYP2A6 enzyme we designed 4 ASO to four different parts of the human CYP2A6 gene and mRNA sequence. The ability to decrease CYP2A6 protein was tested in 2 different human cell lines. The first was a human lymphoblast cell line (h2A6) with a plasmid expression system containing the human CYP2A6 cDNA which is commercially available from Gentest Corp (Woburn, Mass.) and the second was a human hepatic cell line which expresses CYP2A6 (HepG2).
The h2A6 P450 cells were grown to 3×10^6 cells, the media removed and 5 μg ASO and 20 μg/ml lipofectin was added in 1 ml of 5% horse serum supplemented media. The cells were grown for 24 hr when a further 4 mls of complete media (10% horse serum) was added and the cells were grown for an additional 48 hr. Each cell sample was then washed 3 times with phosphate buffered saline, pelleted and frozen. […] These studies were then repeated using the addition of missense oligodeoxynucleotides (MSO) controls for this sequence. The MSO controls have 2 nucleotides switched at the 5 and 3 prime end.

CYP2A6 [12] = assay: Antisense knockdown of CYP2A6 protein in HepG2 cells; format: cell-based, human; details: 2 μg ASO, relative to control untreated and MSO#23 treated cells
Experimental: as §1
The human hepatic HepG2 cells, which express CYP2A6, were grown and aliquoted at 1.0×10^5 cells and grown for 48 hrs in 2 mls complete media (10% fetal calf serum). After 48 hr, 2 μg ASO oligos and 15 μg/ml lipofectin was added in 1 ml 5% FCS media and grown for 24 hr. Cells then trypsinized and washed for Western blots or fixed with 4% paraformaldehyde for Immunocytochemistry.

[13] = seven smokers, methoxsalen vs placebo

CCOc1ccc2ccc(=O)oc2c1 [7-ethoxycoumarin]
rank order of potency in inhibiting cotinine formation [1]: coumarin>7-methoxycoumarin>7-methylcoumarin>7-ethoxycoumarin

COc1ccc2ccc(=O)oc2c1 [7-methoxycoumarin]
rank order of potency in inhibiting cotinine formation [1]: coumarin>7-methoxycoumarin>7-methylcoumarin>7-ethoxycoumarin

Cc1ccc2ccc(=O)oc2c1 [7-methylcoumarin]
rank order of potency in inhibiting cotinine formation [1]: coumarin>7-methoxycoumarin>7-methylcoumarin>7-ethoxycoumarin

O=c1ccc2ccccc2o1 [coumarin]
mean inhibition of cotinine formation (mean±SD) [1]: over 80% | mean inhibition of cotinine formation (mean±SD) ([1]; listed as Coumarin): 84%±11% and 84±11% | rank order of potency in inhibiting cotinine formation [1]: strongest inhibitory effect; also recorded: coumarin>7-methoxycoumarin>7-methylcoumarin>7-ethoxycoumarin | nature of inhibition of nicotine metabolism ([1]; Cornish-Bowden plots): competitive | Ki ([1]; K27 human liver microsomes, n=3, Dixon plot, read-out: apparent Ki, inhibition of nicotine metabolism): ~2 µM | Ki ([1]; ex vivo in human liver microsomes, read-out: Ki, inhibition of NIC metabolism to COT): 1.5 µM

COc1ccc2c(c1)[C@]13CCCC[C@@H]1[C@H](C2)N(C)CC3 [dextromethorphan, Dextromethorphan hydrobromide]
Km at 30 min (CYP2D6 [2]): 5.79 ± 2.01 µM

CCN(CC)C(=S)S [diethyldithiocarbamic acid]
Ki (CYP2A6 [3]): 14.5 µM

COc1c2occc2cc2ccc(=O)oc12 [methoxsalen, 9-Methoxy-7H-furol[3,2-g][1]benzopyran-7-one]
half-life [4]: about 1 hour | change in nicotine concentrations (CYP2A6 [5]; plasma, seven subjects, FIG. 25): large changes | desire to smoke and urge to smoke (CYP2A6 [5]; [13]): significant decreased desire to smoke and urge to smoke | expectation that a cigarette would be pleasant (CYP2A6 [5]; [13]): significant decrease | subjective and physiologic effects accompanying increased plasma nicotine (CYP2A6 [5]; [13]): significant increase in nausea, anxiousness, difficulty concentrating, systolic blood pressure

O=C1C[C@@H](c2ccc(O)cc2)Oc2cc(O)cc(O)c21 [naringenin]
Ki (CYP2A6 [3]): 4.3 µM

CN1CCC[C@H]1c1cccnc1 [nicotine, (S)-nicotine]
Km at 45 min (in vitro; pH 7.4, apparent Km, formation of cotinine (mean±SD), 30 human liver microsomes): 66.7 ± 31.8 µM | Km at 45 min (in vitro; pH 7.4, mean Km, nicotine to cotinine (mean±SD), 30 human livers): 66.6 ± 31.8 µM | urine concentration of NIC [6]: > 80 ng/mL | inhibition of dextromethorphan metabolism by CYP2D6 (CYP2D6 [7]): did not inhibit

Cc1ccccc1C(OCCN(C)C)c1ccccc1 (stereo not drawn) [orphenadrine]
estimated half-life [8]: about 14 h

C=C[C@H]1C[N@@]2CC[C@H]1C[C@@H]2[C@@H](O)c1ccnc2ccc(OC)cc12 [quinidine]
inhibition [9]: ~20% and 25% | inhibition of cotinine formation ([10]; 0.1 μM inhibitor): no inhibition | inhibition of cotinine formation ([10]; 1.0 μM inhibitor): no inhibition | inhibition of cotinine formation ([10]; 10 μM inhibitor): 8%

CO[C@H]1C[C@H](O[C@H]2[C@H](C)[C@@H](O[C@@H]3O[C@H](C)C[C@H](N(C)C)[C@H]3OC(C)=O)[C@@H](C)C[C@@]3(CO3)C(=O)[C@H](C)[C@@H](OC(C)=O)[C@@H](C)[C@@H](C)OC(=O)[C@@H]2C)O[C@@H](C)[C@@H]1OC(C)=O [troleandomycin]
mean inhibition of cotinine formation (mean±SD) [1]: 3%

ASO#23: antisense oligodeoxynucleotide, CYP2A6 mRNA 333-353, exon 2 3 prime end: CCATAGCCTTTGAAGACCCAG (DNA, backbone and methylation of C not given here)
CYP2A6 immunoreactivity, first test of 4 ASO (CYP2A6 [11]; 5 μg ASO, Western blot): effective at removing the CYP2A6 immunoreactivity | amount of CYP2A6, repeat with MSO controls (CYP2A6 [11]; relative to untreated control cells and MSO#23-treated cells): effectively deceased the amount of CYP2A6 | CYP2A6 protein (CYP2A6 [12]): profound decreases in CYP2A6 protein
